The NIST ThermoML archive (doi:10.1021/je901063s)
“And” between values parts separate entries of the source, which are not always exact repeats. Equal entries are not always repeated. ± gives the expanded uncertainty stated by the source.

Columns and labels:
[1] = activity coefficient (dimensionless); of the first substance listed, at infinite dilution; xn = mol fraction of the nth substance listed; conditions: 101 kPa, Liquid, inert gas stripping, headspace analysis in two variants - the classical and the relative, Rayleigh distillation, and circulation still, x1 = 0
[2] = of the first substance listed, at infinite dilution; xn = mol fraction of the nth substance listed; conditions: 101 kPa, Liquid, flow mixing microcalorimeter, x1 = 0

Structure (SMILES) | activity coefficient ([1]; 273.35 K) | activity coefficient ([1]; 283.15 K) | activity coefficient ([1]; 293.15 K) | activity coefficient ([1]; 303.15 K) | activity coefficient ([1]; 313.15 K) | activity coefficient ([1]; 323.15 K) | activity coefficient ([1]; 333.15 K) | activity coefficient ([1]; 343.15 K) | activity coefficient ([1]; 353.15 K) | activity coefficient ([1]; 363.15 K) | partial molar enthalpy ([2]; 288.15 K) [kcal/mol] | partial molar enthalpy ([2]; 298.15 K) [kcal/mol] | partial molar enthalpy ([2]; 308.15 K) [kcal/mol] | activity coefficient ([1]; 371.15 K) | activity coefficient ([1]; 361.25 K) | activity coefficient ([1]; 371.45 K)
CCC(C)CO (stereo unspecified) [2-methyl-1-butanol] + O | 86.3 ± 5.2 | 117 ± 7 | 138 and 134 | 158 and 151 | 163 and 173 | 180 and 173 | 170 and 179 | 169 ± 10 | 160 ± 10 | 162 ± 10 | -2.67 ± 0.0956 | -1.98 ± 0.0478 | -1.29 ± 0.0239 |  |  | 
CCC(C)(C)O [2-methylbutan-2-ol] + O | 18.3 ± 1.1 | 24.5 ± 1.5 | 31.7 and 34.6 | 41.3 and 39.2 | 49 and 46.5 | 52.3 and 56.9 | 59.3 and 61.4 | 64.2 ± 3.9 | 67.1 ± 4 |  |  |  |  |  | 75.4 ± 4.5 | 73.9 ± 4.4
CC(C)C(C)O (stereo unspecified) [3-methyl-2-butanol] + O | 43.5 ± 2.6 | 61.5 ± 3.7 | 73.9 ± 4.4 | 86.5 ± 5.2 | 96.6 ± 5.8 | 104 ± 6 | 110 ± 7 | 111 ± 7 | 107 ± 6 |  |  |  |  | 108 ± 7 |  | 

Continued, in another order:

activity coefficient ([1]; 273.35 K) | activity coefficient ([1]; 283.15 K) | activity coefficient ([1]; 293.15 K) | activity coefficient ([1]; 303.15 K) | activity coefficient ([1]; 313.15 K) | activity coefficient ([1]; 323.15 K) | activity coefficient ([1]; 333.15 K) | activity coefficient ([1]; 343.15 K) | activity coefficient ([1]; 353.15 K) | activity coefficient ([1]; 363.15 K) | partial molar enthalpy ([2]; 288.15 K) [kcal/mol] | partial molar enthalpy ([2]; 298.15 K) [kcal/mol] | partial molar enthalpy ([2]; 308.15 K) [kcal/mol] | activity coefficient ([1]; 371.15 K) | Structure (SMILES) | activity coefficient ([1]; 361.25 K) | activity coefficient ([1]; 371.45 K)
94.9 ± 5.7 | 126 ± 8 | 148 and 146 | 161 and 164 | 173 and 175 | 179 and 184 | 182 and 178 | 179 ± 11 | 164 ± 10 |  |  |  |  | 149 ± 9 | CC(C)CCO [3-methylbutan-1-ol] + O |  | 
48.7 ± 2.9 | 63.1 ± 3.8 | 75.6 ± 4.5 | 88.7 ± 5.3 | 101 ± 6 | 108 ± 7 | 116 ± 7 | 111 ± 7 | 120 ± 7 | 117 ± 7 |  |  |  | 104 ± 6 | CCC(O)CC [3-pentanol] + O |  | 
58.8 ± 3.5 | 73.9 ± 4.4 | 89.2 and 86.1 | 104 and 103 | 119 ± 7 | 129 ± 8 | 134 ± 8 | 134 ± 8 | 124 ± 7 | 130 ± 8 |  |  |  | 118 ± 7 | CCCC(C)O (stereo unspecified) [pentan-2-ol] + O |  | 
